Read-outs that look alike come from different tables or passages of the source. Where only a bound is given, the exact number is not on record here.

Series [1] has as its system HepG2 cells. Nature of the series: In vitro lipid-lowering activity: DiI-LDL uptake in HepG2 cells. Type of series: cell-based. The settings on record: Homo sapiens, test compound 5 uM, 24 h, DiI-LDL 20 ug/ml, 3 h, FLU of sample group/FLU of blank group x100%, read-out: LDL uptake rate. How it is done: HepG2 cells were inoculated in 24-well plates, cultured in DMEM containing 10% FBS for 24 h or 48 h, and then transferred to DMEM containing 2% defatted serum and cultivated for 24 h. The old culture solution was discarded and replaced with new 2% defatted serum DMEM, and a test compound (the working concentration of which is 5 uM, triplicate for each sample) was added and incubated for 24 h. The old culture solution was abandoned and DMEM containing DiI-LDL (20 ug/ml) was added (300 ul/per 24 wells), incubated for 3 h. DMEM containing DiI-LDL was discarded, and cells were rinsed twice with PBS containing 0.4% BSA, and 3 times with PBS to remove excess DiI-LDL. Isopropanol was added (500 ul/per well of a 24-well plate), and was kept in darkness. After shaken for 20 minutes, 200 ul of supernatant was sucked to a black fluorescent plate, and fluorescence intensity (FLU) was detected at excitation light 520 nm and emission light 578 nm. The experimental results were calculated: LDL uptake rate=(FLU value of sample group to be tested/FLU value of blank group)×100%.

The target in series [2] is T1, α1A-adrenergic receptor (α1A-AR) (Homo sapiens, UniProt P35348).
T1 construct: expressed in transfected cells; host or cells: HEK293
T1 sequence (P35348 1-466): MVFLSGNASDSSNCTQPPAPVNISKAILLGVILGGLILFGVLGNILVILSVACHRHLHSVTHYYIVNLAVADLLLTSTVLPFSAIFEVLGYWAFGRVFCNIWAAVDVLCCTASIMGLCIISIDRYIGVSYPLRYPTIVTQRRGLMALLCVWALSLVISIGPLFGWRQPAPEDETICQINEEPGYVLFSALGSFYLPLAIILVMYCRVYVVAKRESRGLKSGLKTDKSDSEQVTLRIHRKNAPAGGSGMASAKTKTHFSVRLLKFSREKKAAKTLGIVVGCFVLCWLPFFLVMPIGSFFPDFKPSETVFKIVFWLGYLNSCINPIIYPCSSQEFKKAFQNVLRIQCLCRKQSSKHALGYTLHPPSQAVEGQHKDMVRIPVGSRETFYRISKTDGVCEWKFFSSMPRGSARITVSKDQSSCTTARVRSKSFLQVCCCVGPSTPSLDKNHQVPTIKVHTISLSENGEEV
Nature of the series: Antagonistic activity on α1A-AR: calcium fluorescence in HEK293 cells stimulated with phenylephrine. The settings on record: HEK293 cells expressing α1A-AR; agonist phenylephrine 30 nM; calcium fluorescence; read-out: α1A-AR/IC50. Type of series: cell-based. How it is done: HEK293 cells stably expressing α1A-adrenergic receptor (α1A-AR) and G protein […] were seeded in 96-well plates. After 24 hours of culture, the medium was removed, and 40 μL of Hank's balanced salt solution (HBSS: containing 5.4 mM KCl, 0.3 mM Na2HPO4, 0.4 mM KH2PO4, 4.2 mM NaHCO3, 1.3 mM CaCl2, 0.5 mM MgCl2, 0.6 mM MgSO4, 137 mM NaCl, 5.6 mM D-glucose and 250 μM sulfinpyridone, pH 7.4) containing 2 μM of MFluo-4AM was added to each well, and incubated for 45 minutes in an incubator. The dye was aspirated and 50 μL of HBSS containing a test compound or 1% DMSO (negative control) was added and incubated for 10 minutes at room temperature, and then read with Flex Station 3 microplate reader. At the specified time point, 25 μL of agonist phenylephrine (final concentration 30 nM) will be automatically added by the detector into the reaction system, and simultaneously stimulated with 485 nm light, and the change in intensity of fluorescence caused by the change in the intracellular calcium ion concentration was detected at 525 nm. […] The response rate of different doses of the same drug was analyzed by GraphPad Prism software to obtain a dose-response curve and the IC50 value was measured. Each experiment was performed in […].

Series [3] relates to Syrian golden hamsters (high-fat diet, hyperlipidemia model). Nature of the series: In vivo lipid-lowering activity in high-fat diet golden hamsters. On the set-up: species or system Syrian golden hamster. The settings on record: for CHOL / HDL-C / LDL-C / TG: high-fat diet, serum; for contents of cholesterol (CHOL), triglyceride (TG) and low density lipoprotein (LDL-C) in the blood: hyperlipidemia model. How it is done: After adaptively feeding Syrian golden hamsters (male, 80-100 g) for a week, all hamsters were fed with high-fat diet. Two weeks later, blood was collected from the orbital venous plexus, serum was separated, and levels of total cholesterol (TC), triglyceride (TG), high-density lipoprotein (HDL-C) and low-density lipoprotein (LDL-C) in serum were measured. They were evenly grouped according to blood lipid levels into […]: model control group, A1 intragastric administration group, A1 intraperitoneal administration group, A5 intragastric administration group, A5 intraperitoneal administration group, A55 intragastric administration group, A55 intraperitoneal administration group, B5 intragastric administration group, B5 intraperitoneal administration group, and the animals in each group were continued to be administered with high fat diet. […] […] Blood lipid levels and body weights were measured every 10 days. After three weeks, the animals were sacrificed and the liver was stored in a −80° C. refrigerator.

A short description of series [4]: Rat pharmacokinetics. Type of series: in vivo. The settings on record: plasma; for AUC(0-inf): read-out: AUCINF—obs; for clearance: read-out: CL—obs (converted); for MRT inf: read-out: MRTINF—obs; for Vd: read-out: Vss—obs. Details: AUC(0-t) / AUC(0-inf): concentration or dose not given beside the values. How it is done:
A1 10 μL of a plasma sample was taken in a centrifuge tube and 100 μL of methanol:acetonitrile (1:1, v/v) was added, vortexed for 1 min, centrifugated (14000 rpm) for 5 min, and 50 μL supernatant was taken, mixed with equal volume of water, and analysised after vortex mixing. The linear range of A1 is: 0.1-300 ng/mL for oral administration and 1-3000 ng/mL for intravenous injection.
A55 10 μL of a plasma sample was taken in a centrifuge tube and 100 μL of methanol:acetonitrile (1:1, v/v) was added, vortexed for 1 min, centrifugated (14000 rpm) for 5 min, and 50 μL supernatant was taken, mixed with equal volume of water, and analysised after vortex mixing. The linear range of A55 is: 0.1-300 ng/mL for oral administration and 0.3-3000 ng/mL for intravenous injection.

The mark [5] stands for this setting: abdominal (intraperitoneal) 30 mg/kg once a day for three weeks.
Setting [6] is: oral (intragastric) 30 mg/kg once a day for three weeks.

Regarding `COc1ccc2c(c1)c1c(n2CO)CN2CCc3cc(OCc4ccc(C)cc4)c(OC)cc3C2C1` (stereo not shown) [Example A69, (2,12-Dimethoxy-3-((4-methylbenzyl)oxy)-5,6,14,14a-tetrahydroindolo[3′,2′:4,5]pyridine[2,1-a]isoquinoline-9(8H)-yl)methanol], the activity at 5 µM in series [1] stood at 140%. Moreover, the IC50 in series [2] was over 100 µM.

In the case of `COc1ccc2[nH]c3c(c2c1)CC1c2cc(OC)c(OCc4ccccc4F)cc2CCN1C3` (stereo not shown) [Example C53, 3-((2-Fluorobenzyl)oxo)-2,12-dimethoxy-5,6,8,9,14,14a-hexahydroindole[3′,2′:4,5]pyridine[2,1-a]isoquinoline], in series [1], the activity at 5 µM stood at 112%. Further, the IC50 in series [2] was 17.5 µM.

On to `COc1ccc2[nH]c3c(c2c1)CC1c2cc(OC)c(OCc4ccc(C)cc4)cc2CCN1C3` (stereo not shown) [Example C59], for which the activity at 5 µM in series [1] is 147%. Also, the IC50 in series [2] was over 100 µM.

With `COc1ccc2c(c1)c1c(n2CO)CN2CCc3cc(OC)c(OCc4ccc(F)cc4)cc3C2C1` (stereo not shown) [Example A5, (2-((4-fluorobenzyl)oxy)-3,12-dimethoxy-5,6,14,14a-tetrahydroindolo[3′,2′:4,5]pyridine[2,1-a]isoquinoline-9(8H)-yl)methanol], in series [1], the activity at 5 µM is 156%. In series [3] (setting [5]), this compound came in with a CHOL of 11.36 mmol/L, an HDL-C of 1.77 mmol/L, an LDL-C of 6.16 mmol/L and a TG of 13.26 mmol/L. Moreover, in series [3] (setting [6]), the CHOL was found to be 15.32 mmol/L, the HDL-C was found to be 4.01 mmol/L, the LDL-C is 7.44 mmol/L and the TG is 15.46 mmol/L. Moreover, in series [3], the “contents of cholesterol (CHOL), triglyceride (TG) and low density lipoprotein (LDL-C) in the blood” value (from here on “contents of cholesterol (CHOL)”) is “significantly reduced”.

As to `COc1ccc2[nH]c3c(c2c1)CC1c2cc(OCc4ccccc4F)c(OC)cc2CCN1C3` (stereo not shown) [Example C9, 2-((2-Fluorobenzyl)oxo)-3,12-dimethoxy-5,6,8,9,14,14a-hexahydroindole[3′,2′:4,5]pyridine[2,1-a]isoquinoline], the TC in series [3] (Dose 30, oral) is on record as 36.87 ± 23.13 mmol/L.

As for `COc1ccc2c(c1)c1c(n2CO)CN2CCc3cc(OC)c(OCc4ccccc4)cc3C2C1` (stereo not shown) [Example A1, (2-(Benzyloxy)-3,12-dimethoxy-5,6,14,14a-tetrahydroindolo[3′,2′:4,5]pyridine[2,1-a]isoquinoline-9(8H)-yl)methanol], in series [1], the activity at 5 µM was 148%. In series [3] (setting [5]), this compound gave a CHOL of 9.75 mmol/L, an HDL-C of 1.63 mmol/L, an LDL-C of 5.25 mmol/L and a TG of 8.16 mmol/L. In series [3] (setting [6]), this compound came in with a CHOL of 27.93 mmol/L, an HDL-C of 2.56 mmol/L, an LDL-C of 13.64 mmol/L and a TG of 28.61 mmol/L. The “contents of cholesterol (CHOL)” value in series [3] was “significantly reduced”. In series [4] (iv), the AUC(0-t) was 1910 ng·h/mL, the concentration peaked (Cmax) at 1110 ng/mL, the Tmax came to 0.083 h and the half-life is 2.58 h. In series [4] (iv), the AUC(0-inf) came to 1980 ng·h/mL, the clearance was 84.2 mL/min/kg, the MRT inf worked out at 3.3 h and the Vd amounted to 16.6 L/kg. Moreover, in series [4] (po), the area under the curve AUC(0-t) was 776 ng·h/mL, the peak level (Cmax) was 159 ng/mL, the Tmax came to 6 h and the bioavailability was found to be 20.3%.

On to `COc1ccc2c(c1)c1c(n2CO)CN2CCc3cc(OCc4ccccc4)c(OC)cc3C2C1` (stereo not shown) [Example A55, (3-(Benzyloxy)-2,12-dimethoxy-5,6,14,14a-tetrahydroindolo[3′,2′:4,5]pyridine[2,1-a]isoquinoline-9(8H)-yl)methanol], for which, in series [1], the activity at 5 µM amounted to 194%. In series [3] (setting [5]), the CHOL is recorded as 17.86 mmol/L, the HDL-C was found to be 2.98 mmol/L, the LDL-C is 9.39 mmol/L and the TG is on record as 19.77 mmol/L. In addition, in series [3] (setting [6]), the CHOL is 11.81 mmol/L, the HDL-C came out at 3.88 mmol/L, the LDL-C worked out at 5.56 mmol/L and the TG amounted to 6.74 mmol/L. In series [3], the “contents of cholesterol (CHOL)” value was “significantly reduced”. In addition, in series [4] (iv), the AUC(0-t) was 2720 ng·h/mL, the Cmax was 2740 ng/mL, the Tmax was found to be 0.083 h and the half-life is 1.88 h. Further, in series [4] (iv), the AUC(0-inf) amounted to 2730 ng·h/mL, the clearance was 61 mL/min/kg, the MRT inf is 1.7 h and the Vd came to 6.41 L/kg. In series [4] (po), the area under the curve AUC(0-t) is 334 ng·h/mL, the Cmax worked out at 62 ng/mL, the time to peak (Tmax) was 4 h and the bioavailability was found to be 6.2%. In series [4] (po), the half-life is 0.71 h, the AUC(0-inf) turned out to be 335 ng·h/mL and the MRT inf turned out to be 4.8 h.

As for `COc1ccc2c(c1)c1c(n2CO)CN2CCc3cc(OCc4cccc(C)c4)c(OC)cc3C2C1` (stereo not shown) [Example A142, (2,12-Dimethoxy-3-((3-methylbenzyl)oxo)-5,6,14,14a-tetrahydroindolo[3′,2′:4,5]pyridine[2,1-a]isoquinoline-9(8H)-yl)methanol], in series [1], the activity at 5 µM worked out at 108%.

In the case of `COc1cc2c(cc1OCc1ccccc1F)C1Cc3c([nH]c4ccccc34)C(c3ccc(F)cc3)N1CC2` (stereo not shown) [Example B10, 2-((2-fluorobenzyl)oxo)-8-(4-fluorophenyl)-3-methoxy-5,6,8,9,14,14a-hexahydroindole[3′,2′: 4,5]pyridine[2,1-a]isoquinoline], in series [1], the activity at 5 µM is 108%.

`COc1cc2c(cc1OCc1ccccc1F)C1Cc3c(n(CO)c4ccccc34)CN1CC2` (stereo not shown) [Example A10, (2-((2-fluorobenzyl)oxy)-3-methoxy-5,6,14,14a-tetrahydroindolo[3′,2′:4,5]pyridine[2,1-a]isoquinoline-9(8H)-yl)methanol]: in series [1], the activity at 5 µM came out at 108%.

The values above are taken from US10927107B2, “Phenyl [a]indole[2,3-g]quinolizine compounds, preparation method therefor, pharmaceutical composition, and applications thereof” (Shanghai Institute of Materia Medica, Chinese Academy of …, priority 2016, dated 2021).
